Reference: ChEMBL document CHEMBL1132382 (J Med Chem, 1999)
pKi: −log10 of the molar value. ≈ marks a conversion by molar mass, not a printed value.

Experiments:
Carbonic anhydrase 4 = target: T1, Carbonic anhydrase 4 (Bos taurus, UniProt Q95323)
T1 sequence (Q95323 whole entry): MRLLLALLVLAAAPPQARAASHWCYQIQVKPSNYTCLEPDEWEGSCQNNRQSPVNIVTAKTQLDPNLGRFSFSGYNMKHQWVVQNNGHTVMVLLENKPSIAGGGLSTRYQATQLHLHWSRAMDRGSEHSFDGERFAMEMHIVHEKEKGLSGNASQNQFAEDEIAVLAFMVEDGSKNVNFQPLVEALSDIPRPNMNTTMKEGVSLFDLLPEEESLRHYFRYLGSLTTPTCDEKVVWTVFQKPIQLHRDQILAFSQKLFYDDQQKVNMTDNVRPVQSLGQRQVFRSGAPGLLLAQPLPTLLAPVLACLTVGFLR
Description: Inhibitory activity against bovine carbonic anhydrase IV (CA4), isolated from bovine lung microsomes

Carbonic anhydrase 1 = Carbonic anhydrase 1 (Homo sapiens, UniProt P00915)
Sequence of Carbonic anhydrase 1 (P00915 whole entry): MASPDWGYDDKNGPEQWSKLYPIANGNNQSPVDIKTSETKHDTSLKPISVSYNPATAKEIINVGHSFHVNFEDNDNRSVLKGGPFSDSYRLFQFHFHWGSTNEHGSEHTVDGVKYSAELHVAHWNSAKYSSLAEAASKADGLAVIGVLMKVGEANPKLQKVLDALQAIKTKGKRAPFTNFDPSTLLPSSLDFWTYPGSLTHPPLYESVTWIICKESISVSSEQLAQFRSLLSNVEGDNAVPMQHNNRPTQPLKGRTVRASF
Description: Inhibitory activity against human recombinant carbonic anhydrase I (CA1)

Oryctolagus cuniculus [1] = species: Oryctolagus cuniculus; assay: The compound was evaluated for fall in intraocular pressure (IOP) of Normotensive rabbits after treatment with one drop (50 microL) of a 2% solution at 0 min (pH 7.0); assay type: functional, Eye
Oryctolagus cuniculus [2] = species: Oryctolagus cuniculus; assay: The compound was evaluated for fall in intraocular pressure (IOP) of Normotensive rabbits after treatment with one drop (50 microL) of a 2% solution at 60 min (pH 7.0); assay type: functional, Eye
Oryctolagus cuniculus [3] = species: Oryctolagus cuniculus; assay: The compound was evaluated for fall in intraocular pressure (IOP) of Normotensive rabbits after treatment with one drop (50 microL) of a 2% solution at 90 min (pH 7.0); assay type: functional, Eye
Oryctolagus cuniculus [4] = species: Oryctolagus cuniculus; assay: The compound was evaluated for fall in intraocular pressure (IOP) of Normotensive rabbits after treatment with one drop (50 microL) of a 2% solution at 30 min (pH 7.0); assay type: functional, Eye
Oryctolagus cuniculus [5] = species: Oryctolagus cuniculus; assay: The compound was evaluated for fall in intraocular pressure (IOP) of Normotensive rabbits after treatment with one drop (50 microL) of a 2% solution at 60 min (pH 6.4); assay type: functional, Eye
Oryctolagus cuniculus [6] = species: Oryctolagus cuniculus; assay: The compound was evaluated for fall in intraocular pressure (IOP) of Normotensive rabbits after treatment with one drop (50 microL) of a 2% solution at 30 min (pH 6.4); assay type: functional, Eye
[7] = not given; remark: listed apart in the source
Oryctolagus cuniculus [8] = species: Oryctolagus cuniculus; assay: The compound was evaluated for fall in intraocular pressure (IOP) of Normotensive rabbits after treatment with one drop (50 microL) of a 2% solution at 90 min (pH 6.4); assay type: functional, Eye
physchem = details: buffer, pH 7.4
Oryctolagus cuniculus [9] = species: Oryctolagus cuniculus; assay: The compound was evaluated for fall in intraocular pressure (IOP) of Normotensive rabbits after treatment with one drop (50 microL) of a 2% solution at 0 min (pH 6.4); assay type: functional, Eye
[10] = octanol/water
Description: Partition coefficient (logD) (chloroform/buffer)

Oryctolagus cuniculus [11] = species: Oryctolagus cuniculus; assay: The compound was evaluated for fall in intraocular pressure (IOP) of Normotensive rabbits after treatment with one drop (50 microL) of a 2% solution at 90 min (pH 6.5); assay type: functional, Eye
Oryctolagus cuniculus [12] = species: Oryctolagus cuniculus; assay: The compound was evaluated for fall in intraocular pressure (IOP) of Normotensive rabbits after treatment with one drop (50 microL) of a 2% solution at 60 min (pH 6.5); assay type: functional, Eye
Oryctolagus cuniculus [13] = species: Oryctolagus cuniculus; assay: The compound was evaluated for fall in intraocular pressure (IOP) of Normotensive rabbits after treatment with one drop (50 microL) of a 2% solution at 30 min (pH 6.5); assay type: functional, Eye
Oryctolagus cuniculus [14] = species: Oryctolagus cuniculus; assay: The compound was evaluated for fall in intraocular pressure (IOP) of Normotensive rabbits after treatment with one drop (50 microL) of a 2% solution at 0 min (pH 6.5); assay type: functional, Eye
Oryctolagus cuniculus [15] = species: Oryctolagus cuniculus; assay: The compound was evaluated for fall in intraocular pressure (IOP) of Normotensive rabbits after treatment with one drop (50 microL) of a 2% solution at 0 min (pH 5.5); assay type: functional, Eye
Oryctolagus cuniculus [16] = species: Oryctolagus cuniculus; assay: The compound was evaluated for fall in intraocular pressure (IOP) of Normotensive rabbits after treatment with one drop (50 microL) of a 2% solution at 30 min (pH 5.5); assay type: functional, Eye
Oryctolagus cuniculus [17] = species: Oryctolagus cuniculus; assay: The compound was evaluated for fall in intraocular pressure (IOP) of Normotensive rabbits after treatment with one drop (50 microL) of a 2% solution at 90 min (pH 5.5); assay type: functional, Eye
Oryctolagus cuniculus [18] = species: Oryctolagus cuniculus; assay: The compound was evaluated for fall in intraocular pressure (IOP) of Normotensive rabbits after treatment with one drop (50 microL) of a 2% solution at 60 min (pH 5.5); assay type: functional, Eye

Structure (SMILES) | pKi (Carbonic anhydrase 4) | pKi (Carbonic anhydrase 1) | kin | kin [7] | solubility (physchem) | logD [10] | Change in IOP (Oryctolagus cuniculus [5]) | Change in IOP (Oryctolagus cuniculus [6]) | Change in IOP (Oryctolagus cuniculus [8]) | Change in IOP (Oryctolagus cuniculus [9]) | also measured
NCC(=O)NCC(=O)NS(=O)(=O)c1nc2ccc(OCCO)cc2s1 | 7.74 | 8.05 | 6.4 h⁻¹ | 3.1 h⁻¹ | 50 mM (≈ 19.4 mg/mL) | 1.85 | 7 mmHg | 3.3 mmHg | 5.4 mmHg | 0 mmHg | 
CNCC(=O)/N=c1\sc(S(N)(=O)=O)nn1C | 7.37 | 6.54 |  |  |  |  |  |  |  |  | Change in IOP (Oryctolagus cuniculus [11]): 5.5 mmHg; Change in IOP (Oryctolagus cuniculus [12]): 6.2 mmHg; Change in IOP (Oryctolagus cuniculus [13]): 3.3 mmHg; Change in IOP (Oryctolagus cuniculus [14]): 0 mmHg
CNCC(=O)Nc1ccc(S(=O)(=O)Nc2ccc(S(N)(=O)=O)cc2)cc1 | 7.21 | 7.30 |  |  |  |  |  |  |  |  | Change in IOP (Oryctolagus cuniculus [11]): 5.5 mmHg; Change in IOP (Oryctolagus cuniculus [12]): 6.3 mmHg; Change in IOP (Oryctolagus cuniculus [13]): 2.5 mmHg; Change in IOP (Oryctolagus cuniculus [14]): 0 mmHg
CNCC(=O)Nc1cc(Cl)c(S(N)(=O)=O)cc1S(N)(=O)=O | 7.30 | 6.46 | 7.9 h⁻¹ | 4.6 h⁻¹ | 54 mM (≈ 19.3 mg/mL) | 1.569 |  |  |  |  | Change in IOP (Oryctolagus cuniculus [15]): 0 mmHg; Change in IOP (Oryctolagus cuniculus [16]): 2.5 mmHg; Change in IOP (Oryctolagus cuniculus [17]): 4.5 mmHg; Change in IOP (Oryctolagus cuniculus [18]): 5.2 mmHg
NCC(=O)NCC(=O)Nc1c(S(N)(=O)=O)cc(S(N)(=O)=O)c(Cl)c1Cl | 7.25 | 6.30 | 11.5 h⁻¹ | 4.8 h⁻¹ | 59 mM (≈ 25.6 mg/mL) | 2.133 | 7 mmHg | 3.2 mmHg | 4.8 mmHg | 0 mmHg | 

More lines, main results first:

pKi (Carbonic anhydrase 4) | pKi (Carbonic anhydrase 1) | kin | kin [7] | solubility (physchem) | logD [10] | Structure (SMILES) | Change in IOP (Oryctolagus cuniculus [5]) | Change in IOP (Oryctolagus cuniculus [6]) | Change in IOP (Oryctolagus cuniculus [8]) | Change in IOP (Oryctolagus cuniculus [9]) | also measured
7.39 | 6.72 |  |  |  |  | CN(CC(=O)/N=c1/sc(S(N)(=O)=O)nn1C)C(=N)N |  |  |  |  | Change in IOP (Oryctolagus cuniculus [1]): 0 mmHg; Change in IOP (Oryctolagus cuniculus [2]): 9.2 mmHg; Change in IOP (Oryctolagus cuniculus [3]): 9 mmHg; Change in IOP (Oryctolagus cuniculus [4]): 5.5 mmHg
7.57 | 7.12 |  |  |  |  | CCN(C(=O)CN(C)C(=N)N)C1CC(C)S(=O)(=O)c2sc(S(N)(=O)=O)cc21 (centres undefined) | 9.1 mmHg | 5 mmHg | 7.6 mmHg | 0 mmHg | 
